{
  "source": "patent US6969760B2",
  "about": "“Jak kinases and regulation of cytokine signal transduction” (St. Jude Children's Research Hospital, priority 1993, dated 2005)",
  "key": {"[1]": {"tested_on": "Jak2", "assay": "GH-dependent tyrosyl phosphorylation of Jak2 (αJak2 immunoprecipitation, αPY immunoblot) in 3T3-F442A fibroblasts", "assay_type": "cell-based", "procedure": "Jak2 is a tyrosine kinase of the correct size (Mr of ˜130,000; see example 1) to be the GHR-associated kinase and was therefore tested for its ability to be phosphorylated in response to GH. Solubilized proteins from GH-treated 3T3-F442A fibroblasts were immunoprecipitated using antiserum to Jak2 (αJak2) and analyzed by anti-phosphotyrosine antibody (αPY) immunoblot. Cells were incubated with varying physiological concentrations of GH in ranging in 10-fold increments from 0.5 ng/ml to 500 ng/ml (the standard concentration used) for 0, 0.5, 5, 50, and 60 minutes.\nCells were grown to confluence and deprived of serum overnight as described previously (Wang, X. et al., J. Biol. Chem. 268:3573-3579 (1993)). Cells were incubated for the indicated times with hormone or growth factor as indicated at 37° C. in 95% air, 5% CO2, rinsed with three changes of ice-cold 10 mM sodium phosphate (pH 7.4), 137 mM NaCl, 1 mM Na3VO4, and scraped in lysis buffer (50 mM Tris (pH 7.5), 0.1% Triton X-100, 137 mM NaCl, 2 mM EGTA, 1 mM Na3VO4, 1 mM phenylmethylsulfonyl fluoride, 10 μg/ml aprotinin, and 10 μg/ml leupeptin) on ice. Cell lysates were centrifuged at 12,000×g for 10 min, and the resulting supernatants were incubated on ice 90 min with the indicated antibody. […]"}, "[2]": {"tested_on": "tyrosine kinase activity associated with the CNTF receptor complex (gp130, LIFRβ)", "assay": "In vitro tyrosine kinase activity associated with the purified CNTF receptor complex", "assay_type": "biochemical", "settings": "compared with CNTF-treated intact cells", "method": "Cell lines were passaged and maintained as previously described (Ip et al., Cell 69:1121-1132 (1992). COS cell transfections were carried out by a DEAE protocol (Davis et al., Science 260:1805-1808 (1993)). Plates of cells were starved in serum-free RPMI medium for 2-4 hours, then stimulated with 50 ng/ml of the indicated factor for 5 minutes. Cells were harvested and lysed as previously described (Stahl et al., J. Biol. Chem. 268:7628-7631 (1993)), except that 1% Brij 96 (Sigma) or 1% NP-40 (Boehringer) was used as indicated. Immunoprecipitation, electrophoresis, and anti-phosphotyrosine immunoblotting with monoclonal antibody 4G10 (Upstate Biotechnology) and detection via enhanced chemiluminescence (Amersham) was carried out as previously described (Id). For in vitro kinase assays, the washed beads were incubated for 15 min at room temperature in 20 mM Hepes (pH 7.2), 10 mM MnCl2, 30 mM sodium orthovanadate and 10 MCi of (g-^32P)ATP (NEN DUPONT). Electrophoresis sample buffer was added and the samples were boiled, subjected to SDS PAGE, and electroblotted to PVDF. The membrane was then incubated in 1 M NaOH at 65° C. for 60 min to destroy serine and threonine phosphate before autoradiography."}, "[3]": {"target": "T1, Jak2 (Mus musculus, UniProt Q62120)", "T1 construct": "endogenous in cells; host or cells: mammalian cells stimulated with EPO or IL-3", "T1 sequence (Q62120 whole entry)": "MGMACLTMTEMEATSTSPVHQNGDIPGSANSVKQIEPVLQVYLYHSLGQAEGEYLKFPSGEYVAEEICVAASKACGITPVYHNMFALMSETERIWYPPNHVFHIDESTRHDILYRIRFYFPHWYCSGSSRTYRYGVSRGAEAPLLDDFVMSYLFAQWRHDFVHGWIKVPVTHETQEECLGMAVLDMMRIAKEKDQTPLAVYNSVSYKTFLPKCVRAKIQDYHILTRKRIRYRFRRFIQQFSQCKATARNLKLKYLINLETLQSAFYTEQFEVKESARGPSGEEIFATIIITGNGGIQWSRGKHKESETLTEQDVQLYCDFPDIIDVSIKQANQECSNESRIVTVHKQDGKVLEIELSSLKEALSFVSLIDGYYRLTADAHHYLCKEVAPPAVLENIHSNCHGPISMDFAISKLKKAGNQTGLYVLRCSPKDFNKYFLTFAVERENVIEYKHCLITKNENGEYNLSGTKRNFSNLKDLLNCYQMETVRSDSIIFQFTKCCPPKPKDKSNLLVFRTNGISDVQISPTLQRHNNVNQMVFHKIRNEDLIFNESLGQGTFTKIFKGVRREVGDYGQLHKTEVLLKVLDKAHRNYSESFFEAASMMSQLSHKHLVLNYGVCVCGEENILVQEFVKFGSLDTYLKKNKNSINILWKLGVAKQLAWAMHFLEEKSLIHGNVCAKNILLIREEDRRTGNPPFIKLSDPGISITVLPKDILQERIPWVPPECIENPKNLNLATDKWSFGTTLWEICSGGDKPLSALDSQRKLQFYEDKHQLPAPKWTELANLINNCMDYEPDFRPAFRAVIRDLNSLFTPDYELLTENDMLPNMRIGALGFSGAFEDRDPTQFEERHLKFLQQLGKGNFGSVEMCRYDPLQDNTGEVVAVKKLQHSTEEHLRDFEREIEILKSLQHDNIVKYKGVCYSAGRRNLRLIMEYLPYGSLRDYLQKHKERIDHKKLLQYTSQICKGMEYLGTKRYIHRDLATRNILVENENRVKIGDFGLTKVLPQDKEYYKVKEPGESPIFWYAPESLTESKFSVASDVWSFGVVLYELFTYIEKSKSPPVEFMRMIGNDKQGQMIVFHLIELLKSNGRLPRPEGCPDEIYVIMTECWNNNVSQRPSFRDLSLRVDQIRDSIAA", "assay": "In vitro kinase assay with Jak2 immunoprecipitated from cell lysates (32P-gamma-ATP, autoradiography)", "assay_type": "biochemical", "settings": "genestein at 0.1 mM in the in vitro kinase assay", "procedure": "In this assay, purified Jak2 is precipitated from cell lysates using Jak2-specific antisera bound to protein A-sepharose. The immunoprecipitated Jak2 is then washed with kinase buffer (50 mM NaCl, 5 mM MgCl2, 5 mM MnCl2, 0.1 mM Na3VO4, 10 mM HEPES pH 7.4) and subsequently incubated for 30 minutes at room temperature with an equal volume of kinase buffer containing 0.25 mCi/ml ^32P-gamma-ATP. After extensive washing, proteins are eluted with sample buffer for SDS-PAGE and separated on 7% gels. ^32P-containing proteins are then visualized by autoradiography.\nThus, activation of the Jak2 catalytic activity is correlated with the biological activities of these cytokines."}, "[4]": {"tested_on": "EPO-induced cell proliferation", "settings": "cited from earlier work"}},
  "note": "“And” between values parts separate entries of the source, which are not always exact repeats. Equal values may be shown once.",
  "data": [
    {"compound": "GH: Recombinant human GH (hGH) provided by Eli Lilly", "values": [
      {"measurement": "earliest time at which GH-dependent tyrosyl phosphorylation of Jak2 was clearly evident", "setting": "[1]", "value": 30, "unit": "s"},
      {"measurement": "lowest GH concentration at which tyrosyl phosphorylation of Jak2 was clearly evident", "setting": "[1]", "value": "5.0 ng/ml and 230 pM"}
    ]},
    {"compound": "CN[C@@H]1C[C@H]2O[C@@](C)([C@@H]1OC)n1c3ccccc3c3c4c(c5c6ccccc6n2c5c31)C(=O)NC4", "note": "[staurosporine]", "values": [
      {"measurement": "sensitivity of receptor-associated in vitro kinase activity to staurosporine", "setting": "[2]", "value": "same sensitivity to staurosporine as that observed upon addition of CNTF to intact cells"}
    ]},
    {"compound": "O=c1c(-c2ccc(O)cc2)coc2cc(O)cc(O)c12", "note": "[genestein]", "values": [
      {"measurement": "reduction in the tyrosine kinase activity of Jak2", "setting": "[3]", "value": 2, "unit": "fold"},
      {"measurement": "effect on ability of EPO to stimulate cell growth", "setting": "[4]", "value": "inhibit the ability of EPO to stimulate cell growth"}
    ]}
  ]
}
